The numbers were not newly measured in US11672781B2, “Metaxalone formulations” (PRANA BIOSCIENCES INC, priority 2018, dated 2023), which cites them from elsewhere.

For the data set the following is noted: independent of pH across the physiological pH range found in the GI tract.

`Cc1cc(C)cc(OCC2CNC(=O)O2)c1` (stereo not shown) [metaxalone, 5-[(3,5-dimethylphenoxy)methyl]-2-oxazolidinone]: the Aqueous solubility entry is listed as “less than 50 ug/ml”.
